What was measured:
Type in all cases: biochemical
[1] = target: T1, c-Raf-1 (Homo sapiens, UniProt P04049); assay: AlphaScreen kinase assay, c-Raf-1; conditions: read-out: IC50, activity toward kinase c-Raf-1
T1 construct: purchased Upstate Biotechnology

[2] = target: T2, B-Raf V600E (Homo sapiens, UniProt P15056, V600E); assay: AlphaScreen kinase assay, B-Raf V600E; conditions: read-out: IC50, activity toward kinase B-Raf V600E
T2 construct: P4254. pFastBacBD-CDC37 BRAF D437-K722-X, V600E; His6 with pFastBac HT leader (TEV site) (N); made in house; host or cells: Sf9 (baculovirus; chaperone CDC37 co-expressed)
T2 sequence (P15056 with tags, fused parts or gaps V600E): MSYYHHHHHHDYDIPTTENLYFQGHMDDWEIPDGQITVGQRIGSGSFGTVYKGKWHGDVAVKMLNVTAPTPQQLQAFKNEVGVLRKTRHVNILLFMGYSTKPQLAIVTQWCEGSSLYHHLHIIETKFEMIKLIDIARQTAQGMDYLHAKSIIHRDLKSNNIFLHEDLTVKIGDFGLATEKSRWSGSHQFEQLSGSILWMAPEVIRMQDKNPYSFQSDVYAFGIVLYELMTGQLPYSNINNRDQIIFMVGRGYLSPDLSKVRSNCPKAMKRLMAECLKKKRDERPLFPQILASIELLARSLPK

[3] = target: T3, Kit (Homo sapiens, UniProt P10721); assay: AlphaScreen kinase assay, Kit; conditions: read-out: IC50, activity toward kinase Kit
T3 construct: P1332.N6 BI PTP KIT M552-K948-X COD; His6 (N); made in house; host or cells: E. coli (PTP1B co-expressed)
T3 sequence (P10721 with tags, fused parts or gaps): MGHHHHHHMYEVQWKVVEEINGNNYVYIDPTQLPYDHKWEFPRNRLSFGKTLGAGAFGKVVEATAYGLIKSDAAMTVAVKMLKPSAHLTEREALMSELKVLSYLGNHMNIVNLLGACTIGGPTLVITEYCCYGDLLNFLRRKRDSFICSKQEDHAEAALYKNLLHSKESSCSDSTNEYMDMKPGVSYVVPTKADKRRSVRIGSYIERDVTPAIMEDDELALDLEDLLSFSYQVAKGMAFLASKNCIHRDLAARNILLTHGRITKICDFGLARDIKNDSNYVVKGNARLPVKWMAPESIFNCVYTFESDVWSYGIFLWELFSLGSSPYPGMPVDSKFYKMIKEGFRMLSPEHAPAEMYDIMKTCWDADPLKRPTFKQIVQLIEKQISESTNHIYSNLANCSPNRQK

[4] = target: T4, Flt1 (Homo sapiens, UniProt P17948); assay: AlphaScreen kinase assay, Flt1; conditions: read-out: IC50, activity toward kinase Flt1
T4 construct: P1826.pETN6 BI-PTP FLT1 M799-D1165-X WT; His6 (N); made in house; host or cells: E. coli (PTP1B co-expressed)
T4 sequence (P17948 with tags, fused parts or gaps): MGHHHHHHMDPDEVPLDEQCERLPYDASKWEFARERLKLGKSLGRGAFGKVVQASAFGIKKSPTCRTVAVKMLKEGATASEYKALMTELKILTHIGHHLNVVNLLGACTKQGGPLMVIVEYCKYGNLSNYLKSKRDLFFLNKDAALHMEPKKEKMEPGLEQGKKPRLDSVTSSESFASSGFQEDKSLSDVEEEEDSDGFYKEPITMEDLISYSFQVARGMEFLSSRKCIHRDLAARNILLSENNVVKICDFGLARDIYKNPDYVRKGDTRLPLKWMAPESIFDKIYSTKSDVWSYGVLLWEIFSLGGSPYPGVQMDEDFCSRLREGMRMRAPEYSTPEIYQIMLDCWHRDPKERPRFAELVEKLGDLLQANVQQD

[5] = target: T5, Fms (Homo sapiens, UniProt P07333); assay: AlphaScreen kinase assay, Fms; conditions: read-out: IC50, activity toward kinase Fms
T5 construct: purchased Upstate Biotechnology
T5 sequence (P07333 20-972): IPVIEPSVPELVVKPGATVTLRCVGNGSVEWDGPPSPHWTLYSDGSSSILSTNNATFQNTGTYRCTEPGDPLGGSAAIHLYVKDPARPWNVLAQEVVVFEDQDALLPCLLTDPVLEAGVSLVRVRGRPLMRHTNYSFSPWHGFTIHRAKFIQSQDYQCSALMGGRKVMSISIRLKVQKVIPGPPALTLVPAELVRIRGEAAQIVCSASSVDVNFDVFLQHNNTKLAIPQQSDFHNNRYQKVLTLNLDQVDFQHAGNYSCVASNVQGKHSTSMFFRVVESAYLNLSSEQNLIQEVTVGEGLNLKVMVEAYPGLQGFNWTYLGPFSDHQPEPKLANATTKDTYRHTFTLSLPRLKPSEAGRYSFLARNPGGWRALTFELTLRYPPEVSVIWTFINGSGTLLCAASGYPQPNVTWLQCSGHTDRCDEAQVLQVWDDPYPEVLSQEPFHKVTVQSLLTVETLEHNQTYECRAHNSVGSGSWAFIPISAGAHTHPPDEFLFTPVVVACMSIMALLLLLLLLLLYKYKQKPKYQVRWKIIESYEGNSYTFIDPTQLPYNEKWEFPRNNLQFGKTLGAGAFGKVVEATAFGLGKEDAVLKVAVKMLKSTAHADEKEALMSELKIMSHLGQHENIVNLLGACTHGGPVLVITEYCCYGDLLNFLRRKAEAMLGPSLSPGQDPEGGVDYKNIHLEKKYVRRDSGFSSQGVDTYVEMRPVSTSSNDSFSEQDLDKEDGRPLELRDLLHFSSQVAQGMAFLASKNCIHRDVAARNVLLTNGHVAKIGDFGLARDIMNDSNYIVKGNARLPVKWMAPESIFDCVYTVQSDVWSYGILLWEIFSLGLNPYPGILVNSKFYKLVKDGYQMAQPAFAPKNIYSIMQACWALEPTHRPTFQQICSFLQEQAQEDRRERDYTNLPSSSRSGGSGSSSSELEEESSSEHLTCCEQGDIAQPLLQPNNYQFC
Excerpt: AlphaScreen assay was used to screen additional kinases. The assay is similarly dependent on the phosphorylation of a peptide substrate. In this assay, an antibody that recognizes phosphorylated substrate is bound to an acceptor bead. The peptide substrate is attached to biotin, which binds to a donor head that contains streptavidin. Thus phosphorylated substrate is bound by antibody and streptavidin, bringing the donor and acceptor heads into close proximity when kinase is not inhibited. The donor produces singlet oxygen which results in emission from the acceptor when they are in close proximity. Conversely, when kinase is inhibited, the donor and acceptor beads are not associated and the emission from the acceptor is reduced.
AlphaScreen assays were done using compounds dissolved in DMSO to a concentration of 20 mM. The compounds were diluted accordingly to the desired final concentrations in each sample well, using 1:3 serial dilution for a total of 8 concentration points. Plates were prepared such that each kinase reaction is 20 μl in 1× kinase buffer, 5% DMSO and 10 μM ATP. After incubation of the kinase reaction for 1 hour at room temperature, 5 μl of donor beads in stop buffer (50 mM EDTA in 1× kinase buffer) was added, the sample was mixed and incubated for 20 minutes at room temperature before adding 5 μl of acceptor beads in stop buffer. The samples were incubated for 60 minutes at room temperature and the signal per well was read on AlphaQuest reader.

[6] = target: T6, B-Raf (Homo sapiens, UniProt P15056); assay: AlphaScreen kinase assay, B-Raf; conditions: read-out: IC50, activity toward kinase B-Raf
T6 construct: purchased Upstate Biotechnology
T6 sequence (P15056 whole entry): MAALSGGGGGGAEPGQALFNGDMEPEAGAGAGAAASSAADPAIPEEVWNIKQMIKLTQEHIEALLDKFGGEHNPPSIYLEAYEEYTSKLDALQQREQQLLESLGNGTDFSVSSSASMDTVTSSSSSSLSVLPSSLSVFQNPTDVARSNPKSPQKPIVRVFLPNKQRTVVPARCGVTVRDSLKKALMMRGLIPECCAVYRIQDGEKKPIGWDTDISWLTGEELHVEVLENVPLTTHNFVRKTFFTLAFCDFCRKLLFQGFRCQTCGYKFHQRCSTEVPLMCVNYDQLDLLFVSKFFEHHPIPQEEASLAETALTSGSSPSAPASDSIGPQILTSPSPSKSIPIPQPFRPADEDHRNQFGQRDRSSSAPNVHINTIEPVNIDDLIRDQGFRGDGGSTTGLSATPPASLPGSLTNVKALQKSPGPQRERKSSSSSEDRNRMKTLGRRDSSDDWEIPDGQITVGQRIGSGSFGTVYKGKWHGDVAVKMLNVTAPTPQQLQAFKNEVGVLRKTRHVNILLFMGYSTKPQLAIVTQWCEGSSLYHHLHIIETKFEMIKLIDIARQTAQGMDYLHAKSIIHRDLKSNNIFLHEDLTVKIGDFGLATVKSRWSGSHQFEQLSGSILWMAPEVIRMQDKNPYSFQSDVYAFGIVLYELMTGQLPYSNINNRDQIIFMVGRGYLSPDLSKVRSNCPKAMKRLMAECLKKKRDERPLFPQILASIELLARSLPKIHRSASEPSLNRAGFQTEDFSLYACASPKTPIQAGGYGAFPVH

[7] = target: T7, FGFR1 (Homo sapiens, UniProt P11362, C488A/C584S); assay: AlphaScreen kinase assay, FGFR1; conditions: read-out: IC50, activity toward kinase FGFR
T7 construct: P1351.pET N6 BI-PTP FGFR A458-E765-X C488A, C584S; made in house; host or cells: E. coli (PTP1B co-expressed)
T7 sequence (P11362 458-765 C488A/C584S): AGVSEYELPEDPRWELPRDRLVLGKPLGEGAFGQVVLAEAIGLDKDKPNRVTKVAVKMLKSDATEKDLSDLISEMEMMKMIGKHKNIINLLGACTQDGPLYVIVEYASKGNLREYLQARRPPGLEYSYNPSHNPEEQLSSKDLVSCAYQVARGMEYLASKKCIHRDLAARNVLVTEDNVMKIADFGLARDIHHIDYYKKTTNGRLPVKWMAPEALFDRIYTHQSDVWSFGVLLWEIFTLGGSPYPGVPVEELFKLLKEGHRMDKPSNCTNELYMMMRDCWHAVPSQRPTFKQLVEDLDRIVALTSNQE

[8] = target: T8, Ret (Homo sapiens, UniProt P07949); assay: AlphaScreen kinase assay, Ret; conditions: read-out: IC50, activity toward kinase Ret
T8 construct: P1378.pET-SF BI-PTP RET H661-R1012 HIS; made in house
T8 sequence (P07949 with tags, fused parts or gaps): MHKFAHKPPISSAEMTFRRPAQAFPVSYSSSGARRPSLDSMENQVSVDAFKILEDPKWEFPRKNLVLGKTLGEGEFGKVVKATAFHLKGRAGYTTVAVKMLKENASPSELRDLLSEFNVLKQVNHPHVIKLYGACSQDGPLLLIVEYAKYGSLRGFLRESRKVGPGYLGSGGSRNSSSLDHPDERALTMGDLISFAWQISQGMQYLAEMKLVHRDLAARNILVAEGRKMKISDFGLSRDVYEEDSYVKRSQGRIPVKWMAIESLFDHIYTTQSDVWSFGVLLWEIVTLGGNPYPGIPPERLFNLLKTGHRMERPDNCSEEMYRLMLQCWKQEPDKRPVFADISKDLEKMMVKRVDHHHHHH

Measured: IC50

T1 sequence (P04049 whole entry): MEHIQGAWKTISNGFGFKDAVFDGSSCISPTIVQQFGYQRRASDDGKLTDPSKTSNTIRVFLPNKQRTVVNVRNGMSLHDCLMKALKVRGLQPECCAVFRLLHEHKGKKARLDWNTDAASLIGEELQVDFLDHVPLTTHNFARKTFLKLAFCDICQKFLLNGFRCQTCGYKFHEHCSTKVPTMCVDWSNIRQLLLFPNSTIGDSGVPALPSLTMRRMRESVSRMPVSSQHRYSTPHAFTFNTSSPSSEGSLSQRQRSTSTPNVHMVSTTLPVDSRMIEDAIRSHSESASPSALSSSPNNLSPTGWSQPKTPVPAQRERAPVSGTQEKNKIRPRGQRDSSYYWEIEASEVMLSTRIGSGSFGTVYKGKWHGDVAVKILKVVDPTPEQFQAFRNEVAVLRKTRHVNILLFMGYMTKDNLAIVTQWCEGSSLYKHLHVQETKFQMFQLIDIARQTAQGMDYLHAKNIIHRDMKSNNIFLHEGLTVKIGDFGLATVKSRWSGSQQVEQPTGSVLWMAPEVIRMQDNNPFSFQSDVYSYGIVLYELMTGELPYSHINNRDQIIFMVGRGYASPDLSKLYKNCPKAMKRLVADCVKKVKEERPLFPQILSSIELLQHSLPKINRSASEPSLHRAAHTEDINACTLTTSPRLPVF

c1cc2cc(N3CCOCC3)cnc2[nH]1 [Compound P-1118]
≤ 10 µM: [1]

CCCS(=O)(=O)Nc1ccc(F)c(C(=O)c2c[nH]c3ncc(C(=O)OC)cc23)c1F [Compound P-1552, 3-[2,6-difluoro-3-(propane-1-sulfonylamino)-benzoyl]-1H-pyrrolo[2,3-b]pyridine-5-carboxylic acid methyl ester]
≤ 10 µM: [2] | [3] | [4] | [5] | [6]

CCCCOc1ccc(S(=O)(=O)Nc2ccc(F)c(C(=O)c3c[nH]c4ncccc34)c2F)cc1 [Compound P-1006, 4-Butoxy-N-[2,4-difluoro-3-(1H-pyrrolo[2,3-b]pyridine-3-carbonyl)-phenyl]-benzenesulfonamide]
≤ 10 µM: [2] | [6] | [1]

CCCC(=O)Nc1ccc(F)c(C(=O)c2c[nH]c3ncc(Br)cc23)c1F [Compound P-1283]
≤ 10 µM: [2] | [7] | [1]

O=C(c1c(F)ccc(OC(F)F)c1F)c1c[nH]c2ncc(-c3cccnc3)cc12 [Compound P-1528, (3-Difluoromethoxy-2,6-difluoro-phenyl)-(5-pyridin-3-yl-1H-pyrrolo[2,3-b]pyridin-3-yl)-methanone]
not listed: [1] | [8]
≤ 10 µM: all other assays above

CCCNC(=O)c1ccc(OC)c(C(=O)c2c[nH]c3ncc(-c4cccnc4)cc23)c1F [Compound P-1077]
≤ 10 µM: [1]

Fc1cnc2[nH]ccc2c1 [Compound P-1061]
≤ 10 µM: [2] | [1]

CCOc1cccc(Nc2ccnc3[nH]ccc23)c1 [Compound P-1076]
≤ 10 µM: [6] | [1]

O=C(c1c(F)ccc(NS(=O)(=O)c2cccc(C(F)(F)F)c2)c1F)c1c[nH]c2ncc(Cl)cc12 [Compound P-1599, N-[3-(5-Chloro-1H-pyrrolo[2,3-b]pyridine-3-carbonyl)-2,4-difluoro-phenyl]-3-trifluoromethyl-benzenesulfonamide]
≤ 10 µM: [2] | [3] | [4] | [5] | [6]

CS(=O)(=O)Nc1cccc(-c2cnc3[nH]cc(C(=O)c4cccc(OC(F)F)c4)c3c2)c1 [Compound P-1430, N-{3-[3-(3-Difluoromethoxy-benzoyl)-1H-pyrrolo[2,3-b]pyridin-5-yl]-phenyl}-methanesulfonamide]
not listed: [1] | [8]
≤ 10 µM: all other assays above

Fc1ccc(Nc2ccnc3[nH]ccc23)cc1F [Compound P-0987]
≤ 10 µM: [6] | [1]

O=[N+]([O-])c1cccc(Nc2ccnc3[nH]ccc23)c1 [Compound P-0973]
≤ 10 µM: [6] | [1]

CCCS(=O)(=O)Nc1ccc(F)c(C(O)c2c[nH]c3ncc(OC)cc23)c1F (centres unmarked) [Compound P-1243, Propane-1-sulfonic acid {2,4-difluoro-3-[hydroxy-(5-methoxy-1H-pyrrolo[2,3-b]pyridin-3-yl)-methyl]-phenyl}-amide]
≤ 10 µM: [2] | [6] | [1]

CCCS(=O)(=O)Nc1ccc(F)c(C(=O)c2c[nH]c3ncc(C(=O)O)cc23)c1F [Compound P-1559, 3-[2,6-difluoro-3-(propane-1-sulfonylamino)-benzoyl]-1H-pyrrolo[2,3-b]pyridine-5-carboxylic acid]
≤ 10 µM: [2] | [3] | [4] | [5] | [6]

Cc1cc(C(=O)c2c[nH]c3ncc(-c4ccc(C(N)=O)cc4)cc23)nn1C [Compound P-0749]
≤ 10 µM: [8] | [3] | [4] | [7]

COc1cnc2[nH]cc(C(=O)c3c(F)ccc(NS(=O)(=O)c4cccc(C(F)(F)F)c4)c3F)c2c1 [Compound P-1598, N-[2,4-Difluoro-3-(5-methoxy-1H-pyrrolo[2,3-b]pyridine-3-carbonyl)-phenyl]-3-trifluoromethyl-benzenesulfonamide]
≤ 10 µM: [2] | [3] | [4] | [5] | [6]

CCCS(=O)(=O)Nc1ccc(F)c(C(=O)c2c[nH]c3ncc(-c4cccc(F)c4)cc23)c1F [Compound P-1259, Propane-1-sulfonic acid {2,4-difluoro-3-[5-(3-fluoro-phenyl)-1H-pyrrolo[2,3-b]pyridine-3-carbonyl]-phenyl}-amide]
not listed: [1] | [8]
≤ 10 µM: all other assays above

CC(=O)Nc1cccc(Nc2ccnc3[nH]ccc23)c1 [Compound P-0941]
≤ 10 µM: [6] | [1]

c1ccc2cc(Nc3ccnc4[nH]ccc34)ccc2c1 [Compound P-0975]
≤ 10 µM: [6] | [1]

COC(c1ccc(NCc2ccc(Cl)c(C(F)(F)F)c2)nc1)c1c[nH]c2ncccc12 (centres unmarked) [Compound P-1064]
≤ 10 µM: [2] | [1]

CCCNS(=O)(=O)c1ccc(OC)c(C(=O)c2c[nH]c3ncc(-c4cccnc4)cc23)c1F [Compound P-1078]
≤ 10 µM: [7] | [1]

CCC(C(=O)c1c[nH]c2ncccc12)S(=O)(=O)Nc1cc(F)cc(F)c1 (centres unmarked) [Compound P-1070]
≤ 10 µM: [2] | [1]

Clc1cnc2[nH]ccc2c1 [Compound P-1063]
≤ 10 µM: [2] | [1]

CC1CCN(c2cnc3[nH]ccc3c2)CC1 [Compound P-1122]
≤ 10 µM: [1]

O=C(c1cccc(OC(F)(F)F)c1)c1c[nH]c2ncc(-c3cccnc3)cc12 [Compound P-1413, (5-Pyridin-3-yl-1H-pyrrolo[2,3-b]pyridin-3-yl)-(3-trifluoromethoxy-phenyl)-methanone]
≤ 10 µM: [2] | [3] | [1]

O=C(c1c(F)ccc(NS(=O)(=O)c2ccc(Cl)c(Cl)c2)c1F)c1c[nH]c2ncccc12 [Compound P-1015, 3,4-Dichloro-N-[2,4-difluoro-3-(1H-pyrrolo[2,3-b]pyridine-3-carbonyl)-phenyl]-benzenesulfonamide]
≤ 10 µM: [2] | [7] | [1]

COc1cccc(Nc2ccnc3[nH]ccc23)c1 [Compound P-1065]
≤ 10 µM: [2] | [1]

CCCS(=O)(=O)Nc1ccc(F)c(C(O)c2c[nH]c3ncc(N4CCOCC4)cc23)c1F (centres unmarked) [Compound P-1071]
≤ 10 µM: [2] | [1]

COC(=O)Nc1ccc(F)c(C(=O)c2c[nH]c3ncccc23)c1F [Compound P-0974, [2,4-Difluoro-3-(1H-pyrrolo[2,3-b]pyridine-3-carbonyl)-phenyl]-carbamic acid methyl ester]
≤ 10 µM: [7] | [1]

CC(C)Oc1cccc(Nc2ccnc3[nH]ccc23)c1 [Compound P-1079]
≤ 10 µM: [1]

O=C(c1c(F)ccc(OC(F)F)c1F)c1c[nH]c2ncc(Br)cc12 [Compound P-1526, (5-Bromo-1H-pyrrolo[2,3-b]pyridin-3-yl)-(3-difluoromethoxy-2,6-difluoro-phenyl)-methanone]
not listed: [1] | [8]
≤ 10 µM: all other assays above

COc1cccc(Cc2c[nH]c3ncc(Br)cc23)c1F [Compound P-0535, 5-Bromo-3-(2-fluoro-3-methoxy-benzyl)-1H-pyrrolo[2,3-b]pyridine]
≤ 10 µM: [2] | [3] | [7] | [5] | [1]

From patent US8415469B2, “Compounds and methods for kinase modulation, and indications therefor” (Plexxikon Inc., priority 2005, dated 2013)
